One may read the EC50 as the concentration giving half of the maximal effect.

This note sets out measurements from US8080654B2, “Macrocyclic quinoxaline compounds as HCV NS3 protease inhibitors” (Insituto di Ricerche di Biologia Molecolare P. Angeletti SpA, priority 2008, dated 2011).

The target in one test is NS 3/4A 1b (Hepatitis C virus genotype 1b, UniProt P26663). Kind of test: biochemical. Particulars: genotype 1b enzyme; read-out: NS 3/4A Inhibitory Activity (Ki) lb. As for the experimental part:
A NS3 protease assay can be performed, for example, in a final volume of 100 μl assay buffer containing 50 mM HEPES, pH 7.5, 150 mM NaCl, 15% glycerol, 0.15% TRITON X-100, 10 mM DTT, and 0.1% PEG 8000. NS3 and NS4A protease is pre-incubated with various concentrations of inhibitors in DMSO for 30 minutes. The reaction is initiated by adding the TRF peptide substrate (final concentration 100 nM). NS3 mediated hydrolysis of the substrate is quenched after 1 hour at room temperature with 100 μl of 500 mM MES, pH 5.5. […] IC50 values are derived using a standard four-parameter fit to the data. […] See P. Gallinari et al., 38 BIOCHEM. […] BIOCHEM. […] V. General Compound Production
(§1) NS 3/4A Inhibitory Activity^1 (Ki): NS 3/4A Inhibitory Activity was determined as described in Section IV.

The next test has as its system HCV replicon gt1b. Kind of test: HCV replicon activity, genotype 1b. The class given is cell-based. Particulars: Hepatitis C virus; genotype 1b replicon; 50% viral replication suppression; read-out: Replicon Activity EC50 gtlb.
The next test addresses 1b mutant enzyme D168T (Hepatitis C virus genotype 1b, UniProt P26663, D1194T). Kind of test: NS3/4A TRF enzyme assay, 1b mutant D168T. The class given is biochemical, hepatitis C virus (HCV). As for the experimental part: (§2) A NS3 protease assay can be performed, for example, in a final volume of 100 μl assay buffer containing 50 mM HEPES, pH 7.5, 150 mM NaCl, 15% glycerol, 0.15% TRITON X-100, 10 mM DTT, and 0.1% PEG 8000. NS3 and NS4A protease is pre-incubated with various concentrations of inhibitors in DMSO for 30 minutes. The reaction is initiated by adding the TRF peptide substrate (final concentration 100 nM). NS3 mediated hydrolysis of the substrate is quenched after 1 hour at room temperature with 100 μl of 500 mM MES, pH 5.5. […] Testing concentrations of different enzyme forms are selected to result in a signal to background ratio (S/B) of 10-30. IC50 values are derived using a standard four-parameter fit to the data. Ki values are derived from IC50 values using the following formula, IC50=Ki(1+[S]/KM), Eqn (1), where [S] is the concentration of substrate peptide in the reaction and KM is the Michaelis constant. See P. Gallinari et al., 38 BIOCHEM. […] BIOCHEM. […] V. General Compound Production
as §1

Another test addresses 1b mutant enzyme D168A (Hepatitis C virus genotype 1b, UniProt P26663, D1194A). Description: NS3/4A TRF enzyme assay, 1b mutant D168A. It is filed as biochemical, hepatitis C virus (HCV). As for the experimental part: as §2, §1
The next test deals with 1b mutant enzyme D168E (Hepatitis C virus genotype 1b, UniProt P26663, D1194E). Description: NS3/4A TRF enzyme assay, 1b mutant D168E. It is filed as biochemical, hepatitis C virus (HCV). As to the method:
as §2, §1

Another test concerns the target 1b mutant enzyme D168G (Hepatitis C virus genotype 1b, UniProt P26663, D1194G). Kind of test: NS3/4A TRF enzyme assay, 1b mutant D168G. The class given is biochemical, hepatitis C virus (HCV). As to the method:
as §2, §1

The target in the next test is 1b mutant enzyme D168V (Hepatitis C virus genotype 1b, UniProt P26663, D1194V). Description: NS3/4A TRF enzyme assay, 1b mutant D168V. It is filed as biochemical, hepatitis C virus (HCV). As to the method: as §2, §1
Another test addresses 1b mutant enzyme D168Y (Hepatitis C virus genotype 1b, UniProt P26663, D1194Y). Description: NS3/4A TRF enzyme assay, 1b mutant D168Y. It is filed as biochemical, hepatitis C virus (HCV). As for the experimental part:
as §2, §1

A further test addresses 1b mutant enzyme D168Q (Hepatitis C virus genotype 1b, UniProt P26663, D1194Q). Description: NS3/4A TRF enzyme assay, 1b mutant D168Q. The class given is biochemical, hepatitis C virus (HCV). As for the experimental part:
as §2, §1

In another test the target is 1b mutant enzyme A156S (Hepatitis C virus genotype 1b, UniProt P26663, A1182S). Description: NS3/4A TRF enzyme assay, 1b mutant A156S. It is filed as biochemical, hepatitis C virus (HCV). As for the experimental part:
as §2, §1

The next test addresses 1b mutant enzyme A156T (Hepatitis C virus genotype 1b, UniProt P26663, A1182T). Kind of test: NS3/4A TRF enzyme assay, 1b mutant A156T. The class given is biochemical, hepatitis C virus (HCV). As to the method: as §2, §1
A further test concerns the target 1b mutant enzyme A156V (Hepatitis C virus genotype 1b, UniProt P26663, A1182V). Description: NS3/4A TRF enzyme assay, 1b mutant A156V. The class given is biochemical, hepatitis C virus (HCV). As to the method:
as §2, §1

The target in a further test is 1b mutant enzyme R155K (Hepatitis C virus genotype 1b, UniProt P26663, R1181K). Kind of test: NS3/4A TRF enzyme assay, 1b mutant R155K. The class given is biochemical, hepatitis C virus (HCV). As to the method: as §2, §1
Another test deals with 1b mutant enzyme R155Q (Hepatitis C virus genotype 1b, UniProt P26663, R1181Q). Kind of test: NS3/4A TRF enzyme assay, 1b mutant R155Q. The class given is biochemical, hepatitis C virus (HCV). As for the experimental part: as §2, §1
The next test has as its target 1b mutant enzyme R155G (Hepatitis C virus genotype 1b, UniProt P26663, R1181G). Description: NS3/4A TRF enzyme assay, 1b mutant R155G. It is filed as biochemical, hepatitis C virus (HCV). As for the experimental part: as §2, §1
In a further test the target is 1b mutant enzyme R155N (Hepatitis C virus genotype 1b, UniProt P26663, R1181N). Kind of test: NS3/4A TRF enzyme assay, 1b mutant R155N. The class given is biochemical, hepatitis C virus (HCV). As to the method:
as §2, §1

Consider `C=C[C@@H]1C[C@]1(NC(=O)[C@@H]1C[C@@H]2CN1C(=O)[C@H](C(C)(C)C)NC(=O)O[C@@H]1CCC[C@H]1CCCCCc1nc3ccc(OC)cc3nc1O2)C(=O)NS(=O)(=O)C1CC1` [WO 2008/057209 Example 118], for which the Ki is less than 0.016 nM at NS 3/4A 1b; 0.78 nM on 1b mutant enzyme D168T; 0.86 nM on 1b mutant enzyme D168A; 0.12 nM on 1b mutant enzyme D168E; 0.45 nM on 1b mutant enzyme D168G; 0.65 nM on 1b mutant enzyme D168V. Also, the Ki was 1.5 nM at 1b mutant enzyme D168Y; 0.42 nM at 1b mutant enzyme D168Q; 0.1 nM on 1b mutant enzyme A156S; 3.4 nM on 1b mutant enzyme A156T; 15 nM on 1b mutant enzyme A156V; 0.08 nM at 1b mutant enzyme R155K. The Ki at 1b mutant enzyme R155Q was 1.9 nM; on 1b mutant enzyme R155G it was 2.3 nM; on 1b mutant enzyme R155N, 0.56 nM. Moreover, the EC50 with HCV replicon gt1b is 3 nM.
